Patent US20060281071A1, “Stearoyl-CoA desaturase assay” (priority 2005, published 2006)

Tests used:
mSCD3 [1] = target: T1, mSCD3 (Mus musculus, UniProt Q99PL7, V119A); test: Conversion of saturated fatty acids to Δ9 monounsaturated fatty acids in ole1 yeast L8-14C expressing mSCD3 (GLC); format: cell-based; design: Cloning of the full-length human and mouse SCD cDNAs: The full coding region of human SCDs; expressed in transfected cells; host or cells: Saccharomyces cerevisiae L8-14C (ole1 disruptant), vector p426GPD; settings: for conversion of exogenous saturated fatty acid to Δ9 monounsaturated fatty acid: exogenous fatty acid 0.2 mM, 1% tergitol NP-40, yeast cultured 2 days (FIG. 2)
T1 sequence (Q99PL7 1-359 V119A): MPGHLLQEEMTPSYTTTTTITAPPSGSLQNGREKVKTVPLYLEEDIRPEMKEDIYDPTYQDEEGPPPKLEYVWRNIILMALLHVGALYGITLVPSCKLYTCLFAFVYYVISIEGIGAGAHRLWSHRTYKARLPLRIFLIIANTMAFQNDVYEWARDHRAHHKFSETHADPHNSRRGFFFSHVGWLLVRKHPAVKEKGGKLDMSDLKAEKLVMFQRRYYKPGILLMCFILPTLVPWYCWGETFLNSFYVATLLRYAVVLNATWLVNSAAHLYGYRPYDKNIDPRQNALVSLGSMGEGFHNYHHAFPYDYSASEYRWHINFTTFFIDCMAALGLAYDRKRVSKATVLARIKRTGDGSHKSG

mSCD3 [2] = target: T1, mSCD3; test: Δ9-desaturase activity in microsomes of Hela cells over-expressing mSCD3; format: biochemical; design: Cloning of the full-length human and mouse SCD cDNAs: The full coding region of human SCDs; expressed in transfected cells; settings: Hela microsomes 100 μg, 14C-acyl-CoA, NADH (FIG. 3)

Row | SMILES | conversion of exogenous saturated fatty acid to Δ9 monounsaturated fatty acid (mSCD3 [1]) | further results
1 | CCCCCCCCCCCCCCCCC(=O)O [17:0, heptadecanoic acid] | undetectable | –
2 | CCCCCCCCCCCCCC(=O)O [14:0, myristic acid] | more than 50% | –
3 | CCCCCCCCCCCCCCCC(=O)O [16:0] | – | % conversion of fatty acid to Δ9 monounsaturated fatty acid (mSCD3 [1]; endogenous fatty acid, L8-14C transformant, YPD lacking unsaturated fatty acids, 3 days): 49%
4 | CCCCCCCCCCCCC(=O)O [13:0, tridecanoic acid] | 32% | –
5 | CCCCCCCCCCCCCCCC(=O)SCCNC(=O)CCNC(=O)[C@H](O)C(C)(C)COP(=O)(O)OP(=O)(O)OC[C@H]1O[C@@H](n2cnc3c(N)ncnc32)[C@H](O)[C@@H]1OP(=O)(O)O [16:0-CoA, palmitoyl-CoA] | – | Δ9-desaturase activity towards 16:0-CoA relative to 18:0-CoA (mSCD3 [2]): 16 fold
6 | CCCCCCCCCCCCCCCCCCCC(=O)O [C20:0, eicosanoic acid] | None of Δ9-desaturase was able to utilize | –
